Experimental data published in patent publication US20260317356A1, “SMALL MOLECULE MODULATORS OF OGG1” (AZKARRA THERAPEUTICS, INC., priority 2023, published 2026).

Assays:
[1] = molecular target: T1, nLucOGG1 in HeLa cells (Homo sapiens, UniProt O15527); test: Cellular Thermal Shift Assay to measure compound affinity for nLucOGG1 in HeLa cells (CETSA DTm); assay type: cell-based; conditions: 10 μM compound, 37° C. 60 min, Tm vs DMSO control
T1 construct: thermal shift read by NanoGlo luminescence
T1 sequence (O15527 whole entry): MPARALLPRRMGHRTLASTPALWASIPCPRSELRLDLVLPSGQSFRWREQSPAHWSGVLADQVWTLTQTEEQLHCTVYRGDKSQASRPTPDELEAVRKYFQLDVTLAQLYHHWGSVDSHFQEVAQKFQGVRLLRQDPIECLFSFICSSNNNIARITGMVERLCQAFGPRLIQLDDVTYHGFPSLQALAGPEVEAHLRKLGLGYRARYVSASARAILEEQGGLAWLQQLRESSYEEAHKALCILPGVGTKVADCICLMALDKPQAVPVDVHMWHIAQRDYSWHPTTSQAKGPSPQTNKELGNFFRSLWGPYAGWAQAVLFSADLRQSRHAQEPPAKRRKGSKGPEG
Method: Biological Example 2: Cellular Thermal Shift Assay to Measure Compound Affinity for ^nLucOGG1 in HeLa Cells (CETSA DTm)
Cell Culture and Transfection of Hela Cells with ^nLucOGG1: For all tests, Hela cells were maintained in growth medium, Dulbecco's Minimum Eagle Medium (Multicell: Cat #319-005-CL) supplemented with 10% heat-inactivated fetal bovine serum (Gibco: Cat #12484-028) at 37° C. and 5% CO2 in a humidified tissue culture incubator. Transient transfections were performed using the Lonza 4-D Nucleofector X unit according to the manufacturer's protocol (Lonza Cat #V4XC-1024). Briefly, for each transfection, 1.2×10^6 cells were centrifuged at 1000 RPM for 5 minutes at room temperature before being diluted in 100 μL SE solution containing 18% v/v supplement and 1.5 μg pNF1-N-empty or pNF1-N-OGG1a vector. The total volume was transferred to a 100 μL nucleofection cuvette prior to transfer to the apparatus where HeLa cell nucleofection protocol CN-114 was executed. Following nucleofection, 500 μL complete media was added to the cells in the cuvette before transferring to a 6-well dish containing 1.5 mL of complete media. Cells were left to incubate for 48 hours before performing all cellular thermal shift experiments.
Cellular Thermal Shift Assays for Target Engagement (CETSA): Forty-eight hours following nucleofection, cells were washed once with DPBS−/−(Multicell: Cat #311-425-CL) and lifted with 0.25% Trypsin-EDTA (Multicell: Cat #325-043-CL) prior to dilution in growth medium and centrifugation at 1000 RPM for 5 minutes at room temperature. The resulting cell pellet was then resuspended in growth medium, cells were counted and the volume adjusted to 500 k cells/mL (2×).
For delta Tm determination, OGG1 inhibitor compounds were dissolved in DMSO to a final working concentration of 20 mM. Working solutions were then diluted in complete media to 20 μM or 0.1% DMSO for the vehicle control (2×). 2×OGG1 inhibitor compound solutions or 0.1% DMSO control were then pre-dispensed into MicroAmp Optical 96-well PCR reaction plates (Applied Biosystems: Cat #4346906) at 50 μL/well. Next, 50 μL or 25 k cells/well from the 2× cell suspension was added to the pre-loaded PCR plates. All plates were prepared as duplicates, covered with adhesive plate sealers (Perkin Elmer: Cat #6050185) and left to incubate at 37° C. for 60 minutes. During incubation, sufficient NanoGlo luciferase assay reagents (Promega: Cat #N1120) were left to equilibrate to room temperature in the dark. Immediately before heating the plates, the NanoGlo substrate was mixed with the NanoGlo buffer at a 1:50 ratio. The thermal cycler (Veriti 96-Well Thermal Cycler, Thermo Fisher Scientific) was allowed to reach the designated temperature prior to placement of the PCR plate into the heating block. For Tm determination experiments, duplicate plates containing a fixed concentration of test compound (10 μM final) as well as vehicle control were prepared to perform a 12-point temperature gradient spanning 37-70° C. for 3 minutes. Therefore, two thermal cycler protocols were set up covering two 6-step temperature gradients ranging from 37-52° C. and 52-70° C. Plates were then allowed to cool at room temperature for 5 minutes after the heat treatment followed by transfer of 75 μL of the reaction into a 96-well white polystyrene microplate (Corning: Cat #CLS3903) and addition of 75 μL of the prepared NanoGlo mixture. Microplates were then left to shake in the dark for 5 minutes before total luminescence was measured on a SpectraMax IX3 plate reader. The luminescence value obtained at each temperature was normalized to the luminescence obtained at 37° C. and the ratio obtained was plotted against the temperature. A Boltzman Sigmoidal non-linear regression was applied to the resulting data to determine Tm values and the difference between the Tm value for a given OGG1 inhibitor relative to the DMSO vehicle control was the delta Tm.

[2] = molecular target: hOGG1 (Homo sapiens, UniProt O15527); test: Biochemical fluorescence assay to measure enzymatic activity of hOGG1 (OGG1/APEX IC50); set-up: Protein His-hOGG1 (12-323) was prepared; His (N); host or cells: E. coli; conditions: 1 nM OGG1+2 nM APEX+6 nM dsDNA (8-oxo-dG substrate); pH 7.5; RT 40 min; read-out: OGG1/APEX IC50
hOGG1, sequence (O15527 12-323): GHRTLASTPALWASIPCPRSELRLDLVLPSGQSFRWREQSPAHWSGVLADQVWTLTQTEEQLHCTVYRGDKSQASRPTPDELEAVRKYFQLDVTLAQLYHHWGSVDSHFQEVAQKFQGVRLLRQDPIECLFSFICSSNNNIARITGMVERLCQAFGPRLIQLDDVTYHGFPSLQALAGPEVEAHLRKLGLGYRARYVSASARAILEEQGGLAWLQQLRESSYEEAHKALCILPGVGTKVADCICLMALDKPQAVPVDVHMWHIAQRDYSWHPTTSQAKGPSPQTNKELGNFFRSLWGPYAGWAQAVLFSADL
Outline: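 Coupled glycosylase/AP-endonuclease read-out: 8-oxo-dG-containing dsDNA (6 nM) cleaved by 1 nM His-hOGG1 (12-323) plus 2 nM APEX1 over 40 min at room temperature, after 20 min enzyme–compound preincubation; buffer 20 mM Tris pH 7.5, 100 mM KCl, 0.1% BSA, 0.01% Tween. IC50 comes from sigmoidal 3-parameter fitting of % inhibition derived from TAMRA signal.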

Row | Compound | ΔTm at 10 µM [1] [°C] | IC50 [2] [nM]
1 | COc1ccc(NC(=O)[C@]2(C)CC[C@H](N3Cc4c(C)ccc(OC)c4NC3=O)CC2)cc1Cl (single isomer, unassigned) [Example 7, (1s,4s)-N-(3-chloro-4-methoxyphenyl)-4-(8-methoxy-5-methyl-2-oxo-1,2-dihydroquinazolin-3(4H)-yl)-1-methylcyclohexanecarboxamide] | 8 to 10 | < 100
2 | COc1cc(NC(=O)[C@H]2CC[C@@H](N3Cc4c(C)ccc(P(C)(C)=O)c4NC3=O)CC2)ccc1C [Example 5, (1s,4s)-4-(8-(Dimethylphosphoryl)-5-methyl-2-oxo-1,2-dihydroquinazolin-3(4H)-yl)-N-(3-methoxy-4-methylphenyl)cyclohexanecarboxamide] | 6 to 8 | 100 to 1000
3 | COc1ccc(NC(=O)[C@H]2CC[C@@H](N3Cc4c(C)ccc(OC)c4NC3=O)CC2)cc1C#N [Example 2, (1s,4s)-N-(3-Cyano-4-methoxyphenyl)-4-(8-methoxy-5-methyl-2-oxo-1,2-dihydroquinazolin-3(4H)-yl)cyclohexanecarboxamide] | 6 to 8 | 100 to 1000
4 | COc1ccc(NC(=O)[C@H]2CC[C@@H](N3Cc4c(C)ccnc4NC3=O)CC2)cc1C [Example 16, (1s,4s)-N-(4-Methoxy-3-methylphenyl)-4-(5-methyl-2-oxo-1,2-dihydropyrido[2,3-d]pyrimidin-3(4H)-yl)cyclohexanecarboxamide] | 8 to 10 | < 100
5 | COc1ccc(NC(=O)[C@]2(C)CC[C@H](N3Cc4c(C)ccc(OC)c4NC3=O)CC2)cc1C (single isomer, unassigned) [Example 11, (1s,4s)-N-(3-methyl-4-methoxyphenyl)-4-(8-methoxy-5-methyl-2-oxo-1,2-dihydroquinazolin-3(4H)-yl)-1-methylcyclohexanecarboxamide] | 8 to 10 | < 100
6 | COc1ccc(NC(=O)[C@H]2CC[C@@H](N3Cc4c(C)ccc(OC)c4NC3=O)CC2)cc1C [Example 4, (1s,4s)-N-(3-Methyl-4-methoxyphenyl)-4-(8-methoxy-5-methyl-2-oxo-1,2-dihydroquinazolin-3(4H)-yl)cyclohexanecarboxamide] | 6 to 8 | 100 to 1000
7 | COc1ccc(NC(=O)[C@H]2CC[C@@H](N3Cc4c(C)ccc(OC)c4NC3=O)CC2)cc1Cl [Example 3, (1s,4s)-N-(3-Chloro-4-methoxyphenyl)-4-(8-methoxy-5-methyl-2-oxo-1,2-dihydroquinazolin-3(4H)-yl)cyclohexanecarboxamide] | 6 to 8 | 100 to 1000
8 | COc1ccc(NC(=O)[C@H]2CC[C@@H](N3Cc4c(C)ccnc4NC3=O)CC2)cc1Cl [Example 14, (1s,4s)-N-(3-Chloro-4-methoxyphenyl)-4-(5-methyl-2-oxo-1,2-dihydropyrido[2,3-d]pyrimidin-3(4H)-yl)cyclohexanecarboxamide] | 6 to 8 | 100 to 1000

Further lines, results first:

Row | ΔTm at 10 µM [1] [°C] | IC50 [2] [nM] | Compound
9 | 6 to 8 | 100 to 1000 | COc1cc(NC(=O)[C@H]2CC[C@@H](N3Cc4c(C)cc(OCCN5CC(F)(F)C5)cc4C3=O)CC2)ccc1C [Example 255, (1s,4s)-4-(6-(2-(3,3-Difluoroazetidin-1-yl)ethoxy)-4-methyl-1-oxoisoindolin-2-yl)-N-(3-methoxy-4-methylphenyl)cyclohexanecarboxamide]
10 | > 10 | < 100 | COc1ccc(NC(=O)[C@H]2CC[C@@H](N3Cc4c(C)cc(NCCN(C)C)cc4C3=O)CC2)cc1C [Example 256, (1s,4s)-4-(6-(2-(Dimethylamino)ethylamino)-4-methyl-1-oxoisoindolin-2-yl)-N-(4-methoxy-3-methylphenyl)cyclohexanecarboxamide]
11 | 6 to 8 | 100 to 1000 | COc1ccc(NC(=O)[C@H]2CC[C@@H](N3Cc4c(C)cccc4C3=O)CC2)cc1C [Example 227, (1s,4s)-N-(4-Methoxy-3-methylphenyl)-4-(4-methyl-1-oxoisoindolin-2-yl)cyclohexanecarboxamide]
12 | 8 to 10 | 100 to 1000 | COc1cc(NC(=O)[C@]2(C)CC[C@H](N3Cc4c(C)cccc4C3=O)CC2)ccc1C [Example 277, (1s,4s)-N-(3-methoxy-4-methylphenyl)-1-methyl-4-(4-methyl-1-oxoisoindolin-2-yl)cyclohexane-1-carboxamide]
13 | 6 to 8 | 100 to 1000 | COc1cc(NC(=O)[C@H]2CC[C@@H](N3Cc4ccccc4NC3=O)CC2)ccc1C [Example 67, (1s,4s)-N-(3-methoxy-4-methylphenyl)-4-(2-oxo-1,2-dihydroquinazolin-3(4H)-yl)cyclohexanecarboxamide]
14 | 8 to 10 | < 100 | COc1cc(NC(=O)[C@H]2CC[C@@H](N3Cc4c(C)ccc(OC5CNC5)c4NC3=O)CC2)ccc1C [Example 45]
15 | 8 to 10 | < 100 | COc1ccc(NC(=O)[C@H]2CC[C@@H](N3Cc4c(C)cc(NCCN(C)C)cc4C3=O)CC2)cc1C#N [Example 259, (1s,4s)-N-(3-Cyano-4-methoxyphenyl)-4-(6-(2-(dimethylamino)ethylamino)-4-methyl-1-oxoisoindolin-2-yl)cyclohexanecarboxamide]
16 | 6 to 8 | < 100 | COc1cc(NC(=O)[C@H]2CC[C@@H](N3Cc4c(C)cc(N(C)C)cc4C3=O)CC2)ccc1C [Example 135, (1s,4s)-4-(6-(Dimethylamino)-4-methyl-1-oxoisoindolin-2-yl)-N-(3-methoxy-4-methylphenyl)cyclohexane-1-carboxamide]
17 | > 10 | < 100 | COc1cc(NC(=O)[C@H]2CC[C@@H](N3Cc4c(C)ccc(CNC(C)=O)c4NC3=O)CC2)ccc1C [Example 17, (1s,4s)-4-(8-(Acetamidomethyl)-5-methyl-2-oxo-1,2-dihydroquinazolin-3(4H)-yl)-N-(3-methoxy-4-methylphenyl)cyclohexanecarboxamide]
18 | 8 to 10 | < 100 | COc1cc(NC(=O)[C@H]2CC[C@@H](N3Cc4c(C)ccc(OCC5CNC5)c4NC3=O)CC2)ccc1C [Example 44, (1s,4s)-4-(8-(Azetidin-3-ylmethoxy)-5-methyl-2-oxo-1,2-dihydroquinazolin-3(4H)-yl)-N-(3-methoxy-4-methylphenyl)cyclohexanecarboxamide]
